{
  "source": "patent US10407466B2",
  "about": "(Apellis Pharmaceuticals, Inc., priority 2005, dated 2019)",
  "key": {"[1]": {"assay": "Half-life in vitro in the vitreous", "format": "in vitro ADME", "method": "The inventors' calculations establish, for the first time, the feasibility of substantially inhibiting C3 activation at levels at or above those expected to be present in the vitreous of a subject with wet ARMD by sustained intravitreal delivery of amounts as little as 5 μg/day of a therapeutic agent, which amounts may, according to the invention, be delivered by intravitreal implant technology over prolonged periods of time (as described further below). The inventors' calculations also establish, for the first time, the feasibility of substantially inhibiting C3 activation at levels at or above those expected to be present in the vitreous of a subject with dry ARMD by sustained intravitreal delivery of amounts as low as 2 μg/day of a therapeutic agent, which amounts may be delivered over prolonged periods of time by intravitreal implant technology according to the present invention."}, "[2]": {"system": "choroidal neovascularization (CNV) in C57BL/6 mice", "assay": "Laser-induced CNV in a mouse model, intravitreal injection", "format": "in vivo", "from_the_text": "C57BL/6 mice (The Jackson Laboratory) were anesthetized with a mixture of ketamine/xylazine (8:1) and the pupils were dilated with a single drop of 1% tropicamide. Krypton red laser photocoagulation (50-μm spot size, 0.05 s duration, 250 mW) will be used to generate laser spots in surrounding the optic nerve by using a hand-held coverslip as a contact lens. Formation of a bubble at the laser spot indicated rupture of Bruch's membrane. Multiple laser spots were generated in each eye.\nDifferent groups of mice were injected with different quantities of this molecule or of mouse albumin (as a control) to determine the effect of dosage on the efficacy and toxicity of VCP. Briefly, after anesthesia and dilation of the pupil, the anterior chamber was entered via the limbus with a 28-gauge needle to decompress the eye. Under an operating microscope, which allows visualization of the retina, a 32-gauge (blunt) needle was passed through a scleral incision, just behind the limbus, into the vitreous cavity.\nSeven days after CNV induction incidence of CNV was determined. Briefly, the mice were perfused with a FITC-dextran (Sigma-Aldrich) solution just prior to sacrifice. After the eyes were excised and fixed for 1 h in 10% phosphate-buffered formalin, RPE-choroid-scleral flat mounts were prepared as follows. The cornea and the lens were removed and the neurosensory retina carefully dissected from the eyecup. Five radial cuts were from the edge of the eyecup to the equator; the sclera-choroidretinal pigment epithelium (RPE) complex was flat-mounted, with the sclera facing down, on a glass slide in Aquamount. The flat mounts were stained with an anti-elastin specific monoclonal antibody (Sigma-Aldrich) and then with a CY3-conjugated secondary antibody (Sigma-Aldrich) at a suitable concentration, e.g., at a 1/200 dilution of a 1.0 mg/ml stock solution. Mounts were observed under confocal microscopy (LSM510, Zeiss). The prominent neovascular growth stained green whereas the underlying elastin in the Bruch's membrane stained red within a laser spot. Images were analyzed with the image analysis software AxioVision (Zeiss). The amount of CNV was determined by measuring the total green-fluorescent surface area in each picture. A mean green-fluorescent area was obtained for the various groups and compared using student t-test for comparisons between groups and ANOVA for comparison among multiple groups. […] Deposition of a variety of different complement components is also measured using immunological techniques and/or RT-PCR.\nSeven days after CNV induction, incidence of CNV was determined. Just prior to sacrifice, the mice were perfused with a FITC-dextran (Sigma-Aldrich) solution. After the eyes were excised and fixed in 10% phosphate-buffered formalin, RPE-choroid-scleral flat mounts were prepared and stained with an anti-elastin specific monoclonal antibody (Sigma-Aldrich) and then with a CY3-conjugated secondary antibody (Sigma-Aldrich). Mounts were observed under confocal microscopy (LSM510, Zeiss). The prominent neovascular growth stained green whereas the underlying elastin in the Bruch's membrane stained red within a laser spot. […] Images were analyzed with the image analysis software AxioVision (Zeiss). The amount of CNV was determined by measuring the total green-fluorescent surface area in each picture. A mean green-fluorescent area was obtained for the various groups and compared using student t-test for comparisons between groups and ANOVA for comparison among multiple groups. Results are described in Table 2 and in the graph in FIG. 4."}, "non-primate C3": {"system": "non-primate C3", "conditions": "reported; cited from earlier work"}, "[3]": {"conditions": "in vivo; cited from earlier work"}},
  "note": "Like-named read-outs stand apart in the source and are kept apart here. Marks after values point to notes of the source that are not given here. Bridge positions count the residues as written; N and C are the ends. Square brackets hold non-standard residues; d marks the D form. 2Nal = N[C@@H](Cc1ccc2ccccc2c1)C(=O)O",
  "data": [
    {"compound": "CC[C@H](C)[C@H](NC(C)=O)C(=O)N[C@H]1CSSC[C@@H](C(=O)N[C@H](C(N)=O)[C@@H](C)O)NC(=O)[C@H](CCCNC(=N)N)NC(=O)[C@H](Cc2cnc[nH]2)NC(=O)[C@H](C)NC(=O)CNC(=O)[C@H](Cc2c[nH]c3ccccc23)NC(=O)[C@H](CC(=O)O)NC(=O)[C@H](CCC(N)=O)NC(=O)[C@H](Cc2cn(C)c3ccccc23)NC(=O)[C@H](C(C)C)NC1=O", "note": "[Ac-V4(1-MeW)/H9A]", "values": [
      {"measurement": "half-life", "setting": "[1]", "value": "~6.9", "unit": "h"}
    ]},
    {"compound": "CC[C@H](C)[C@H](N)C(=O)N[C@H]1CSSC[C@@H](C(=O)N[C@H](C(N)=O)[C@@H](C)O)NC(=O)[C@H](CCCN=C(N)N)NC(=O)[C@H](Cc2cnc[nH]2)NC(=O)[C@H](Cc2cnc[nH]2)NC(=O)CNC(=O)[C@H](Cc2c[nH]c3ccccc23)NC(=O)[C@H](CC(=O)O)NC(=O)[C@H](CCC(N)=O)NC(=O)[C@H](C(C)C)NC(=O)[C@H](C(C)C)NC1=O", "note": "[compstatin]", "values": [
      {"measurement": "Mean Difference (I-J), FldAreaGreen", "setting": "[2]; I = Compstatin 30 ug, J = VCP 30 ug, day 7", "value": "−317.4"},
      {"measurement": "Mean Difference (I-J), FldAreaGreen", "setting": "[2]; I = Mouse Albumin Control, J = test agent 30 ug/eye, day 7", "value": "3286*"},
      {"measurement": "Mean Difference (I-J), FldAreaGreen", "setting": "[2]; I = No-treatment control, J = test agent 30 ug/eye, green-fluorescent CNV area, day 7, Tamhane", "value": "5195*"},
      {"measurement": "Mean Difference (I-J), FldAreaGreen", "setting": "[2]; I = test agent 30 ug/eye, J = Mouse Albumin Control, day 7", "value": "−3286*"},
      {"measurement": "Mean Difference (I-J), FldAreaGreen", "setting": "[2]; I = test agent 30 ug/eye, J = No-treatment control, day 7", "value": "−5195*"},
      {"measurement": "Mean Difference (I-J), FldAreaGreen", "setting": "[2]; I = test agent 30 ug/eye, J = VCP 10 ug, day 7", "value": "−5862*"},
      {"measurement": "affinity for non-primate C3 compared with human or non-human primate C3", "setting": "non-primate C3", "value": "lower"},
      {"measurement": "half-life", "setting": "[3]", "value": "< 0.25", "unit": "h"}
    ]},
    {"compound": "Ac-ICV(2-Nal)QDWGAHRCT-CONH2 (Ac-ICV[2Nal]QDWGAHRCT-NH2; disulfide 2-12 (inferred)) [Ac-V4(2-Nal)/H9A]", "values": [
      {"measurement": "mean area of CNV relative to either no treatment or administration of albumin", "setting": "[2]; 30 μg intravitreal, 24 hrs after laser induction, seven days after CNV induction", "value": "statistically significant reduction"},
      {"measurement": "effectiveness compared with VCP on a μg basis", "setting": "[2]; 30 μg/eye, difference not statistically significant at these sample sizes", "value": "somewhat more effective than VCP"},
      {"measurement": "development of CNV in an animal model", "setting": "[2]; summary of Example 1", "value": "effective in significantly inhibiting the development of CNV"}
    ]}
  ]
}
